For one data set, the target named is human h-PGDS (Homo sapiens (Human), UniProt O60760). Nature of the data set: Enzyme Immunoassay (EIA) method for inhibition of hematopoietic PGD2 synthase. The data set is classed as biochemical. Conditions: PGD2 formed from PGH2, measured by EIA; read-out: hPGDS EIA IC50. The text has this: The compounds of the present invention can be tested for enzymatic inhibiting activity against PGD2 Synthase according to either one of the following assays.
Assay 2: Enzyme Immunoassay (EIA) Method
• a. Preparation of 0.1M K2HPO4/KH2PO4 buffer (pH 7.4) • Prepare 0.1 M KH2PO4 from 1M KH2PO4 (Sigma, Cat# P-8709) • Prepare 0.1 M K2HPO4 from powder of K2HPO4 (Fisher, BP363-500) • Mix 0.1 M K2HPO4 with 0.1 M KH2PO4 to adjust pH to 7.4. • b. Preparation of 0.5% γ-globulin • Add 0.1 g of γ-globulin (Sigma, Cat# G-5009) to 20 mL 0.1 M K2HPO4/KH2PO4 buffer (pH 7.4) and make 1-mL/vial aliquots and store in −80° C. • c. Preparation of 100 mM GSH • Add 307 mg of GSH (Sigma, Cat# G-6529) to 10 mL 0.1 M K2HPO4/KH2PO4 buffer (pH 7.4) and store at −80° C. • d. Preparation of Reaction buffer: • 198 mL of 0.1M K2HPO4/KH2PO4 buffer (pH 7.4) • 2 mM GSH—Prepared from 100 mM GSH • 0.4 g Glycerol • 2 mL of 0.5% γ-globulin • Add 0.4 g of glycerol and 2 mL of 0.5% γ-globulin to 198 mL of 0.1 M K2HPO4/KH2PO4 • buffer (pH7.4). • Add 0.4 mL of 100 mM GSH to 19.6 mL reaction buffer before the assay (enough for two 96-well plates). • e. Preparation of FeCl2/citric acid stopping solution: (8 mg/mL FeCl2, 0.1 M citric acid) • Add 40 mg fresh FeCl2 (IGN, Cat#158046) to 5 mL 0.1 M citric acid (Sigma, Cat# C0759). • f. Preparation of MOX reagent: • 10% EtOH—Add 1 mL of EtOH to 9 mL of ultra pure H2O • Dissolve 0.1 g of methoxylamine (Cayman, Cat#400036/) in 10% EtOH (10 mL). • Add 0.82 g of sodium acetate (Cayman, Cat#400037) to MOX solution and dissolve. II. Materials and Method • Dimethylsulfoxide (DMSO; Sigma; Cat# D2650) • Prostaglandin D2-MOX express EIA kit (Caymen Chemical, Catalog No. 500151)
Before the assay, cool down 10 mL of acetone in polypropylene tubes and empty 96 well plates in ice. All the procedures except compound dilution are performed on ice.
• 1. Dilute compound in DMSO
• 2. […] Total PGD2 levels (pg/mL) were determined in the samples by EIA kits (Cayman Chemical, Catalog No. 500151) • Calculate amount of PGD2 as below • Calculated % Positive control according to the equation below; […]

Data set [1] is described as follows: Solid solubility (solidsol). The data set is classed as physicochemical.

By IC50 is commonly meant the midpoint of a concentration-inhibition curve.

Chain of human h-PGDS (O60760 whole entry): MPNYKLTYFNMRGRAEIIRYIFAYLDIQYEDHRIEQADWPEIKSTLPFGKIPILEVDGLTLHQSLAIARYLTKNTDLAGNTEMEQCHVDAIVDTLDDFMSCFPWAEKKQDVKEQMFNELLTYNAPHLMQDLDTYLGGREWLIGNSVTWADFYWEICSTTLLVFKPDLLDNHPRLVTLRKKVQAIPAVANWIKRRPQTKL

Regarding `C[C@@H](NC(=O)c1cnc(-c2ccccn2)nc1)c1cccc(-c2noc(C(C)(C)O)n2)c1` [Example 3, 2-Pyridin-2-yl-pyrimidine-5-carboxylic acid ((R)-1-{3-[5-(1-hydroxy-1-methyl-ethyl)-1,2,4-oxadiazol-3-yl]-phenyl}-ethyl)-amide], the concentration for half-maximal inhibition (IC50) on human h-PGDS amounted to 26 nM. Further, the solidsol in data set [1] was determined as 29.4 µM.

In the case of `C[C@H](NC(=O)c1cnc(-c2ccccn2)nc1)c1cccc(-c2noc(C(C)(C)O)n2)c1` [Example 2, 2-Pyridin-2-yl-pyrimidine-5-carboxylic acid ((S)-1-{3-[5-(1-hydroxy-1-methyl-ethyl)-1,2,4-oxadiazol-3-yl]-phenyl}-ethyl)-amide], at human h-PGDS, the IC50 is 11 nM. In addition, the solidsol in data set [1] came to 854.9 µM.

With `CC(C)(O)c1nc(-c2cccc(CNC(=O)c3cnc(-c4ccccn4)nc3)c2)no1` [Example 1, 2-Pyridin-2-yl-pyrimidine-5-carboxylic acid 3-[5-(1-hydroxy-1-methyl-ethyl)-1,2,4-oxadiazol-3-yl]-benzylamide], at human h-PGDS, the half-maximal inhibitory concentration (IC50) amounted to 12 nM. For the same compound, the solidsol in data set [1] was 135.9 µM.

Source of the values: patent US9469627B2, “Phenyloxadiazole derivatives as PGDS inhibitors” (Sanofi, priority 2009, dated 2016).
